Assay results from the supplement of paper PMC11061612.

How the values were obtained:
[1] = test system: SU-DHL-6 (B-Cell Non-Hodgkin's Lymphoma); experiment: Bliss excess, mean over the matrix (fraction); higher = more synergy
Procedure, shortened: (§1)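 Cell lines in DMEM/F12 or RPMI with 10% FBS were plated in 1536-well plates, held 24 hours at 37°C, 5% CO2, then given two-drug dose matrices for 72 hours (DMSO typically 0.2%). Viability was read by CellTiter-Glo 2.0 luminescence and scaled as inhibition from 0 (vehicle wells) to 1 (blank wells). Combination Emax is the second-highest inhibition in the matrix; Bliss excess is observed combination effect minus expected EA + EB − EA·EB, EA and EB being single-agent effects.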

[2] = test system: MHH-PREB-1 (B-Cell Non-Hodgkin's Lymphoma); experiment: as above
Procedure, shortened: as §1

[3] = test system: RH-18 (Rhabdomyosarcoma); experiment: as above
Procedure, shortened: as §1

[4] = test system: NCI-H747 (Colorectal Carcinoma); experiment: as above
Procedure, shortened: as §1

[5] = test system: TE-4 (Esophageal Squamous Cell Carcinoma); experiment: as above
Procedure, shortened: as §1

[6] = test system: OC-314 (Ovarian Carcinoma); experiment: as above
Procedure, shortened: as §1

[7] = test system: HCC-15 (Squamous Cell Lung Carcinoma); experiment: as above
Procedure, shortened: as §1

[8] = test system: SW626 (Colorectal Carcinoma); experiment: as above
Procedure, shortened: as §1

[9] = test system: SW1116 (Colorectal Carcinoma); experiment: as above
Procedure, shortened: as §1

[10] = test system: SIMA (Neuroblastoma); experiment: as above
Procedure, shortened: as §1

[11] = test system: RH-18 (Rhabdomyosarcoma); experiment: combination Emax (second highest fraction inhibited in the dose matrix, 72 h); higher = more inhibition; extreme values may be limits of the assay
Procedure, shortened: as §1

[12] = test system: SIMA (Neuroblastoma); experiment: as above
Procedure, shortened: as §1
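Wherever Bliss excess, mean over the matrix is given: after 72 h of two-drug dosing.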

SMILES | Bliss excess [1] | Bliss excess [2] | Bliss excess [3] | Bliss excess [4] | Bliss excess [5] | Bliss excess [6] | Bliss excess [7] | Bliss excess [8] | Bliss excess [9] | Bliss excess [10] | combination Emax [11] | combination Emax [12]
COc1cccc2c1C(=O)c1c(O)c3c(c(O)c1C2=O)C[C@@](O)(C(=O)CO)C[C@@H]3O[C@H]1C[C@H](N)[C@H](O)[C@H](C)O1 [Doxorubicin] + Cc1cc2ncnn2cc1Nc1ncc2c(n1)n(C1CCOCC1)c(=O)n2C [AZD7648] (first compound max 1 µM, 7x7, partner max 10 µM) | 0.0697 | 0.0891 | 0.0463 | 0.0388 | -0.0039 | 0.105 | 0.0127 | 0.0033 | -0.0046 | 0.0859 | 0.76 | 0.854
Cc1cc2ncnn2cc1Nc1ncc2c(n1)n(C1CCOCC1)c(=O)n2C [AZD7648] + CN(C)CCCOc1ccc(-c2ccc3ncc4c(c3c2)n(C2CCOCC2)c(=O)n4C)cn1 [AZD0156] (first compound max 10 µM, 7x7, partner max 1 µM) | -0.0502 | 0.118 | -0.0092 | 0.0253 | 0.0139 | 0.0334 | 0.0013 | 0.0225 | -0.0064 | 0.0504 | 0.333 | 0.312
COc1cccc(OCCCN)c1-c1cc(Nc2cnc(C#N)cn2)n[nH]1 [Prexasertib] + Cc1cc2ncnn2cc1Nc1ncc2c(n1)n(C1CCOCC1)c(=O)n2C [AZD7648] (first compound max 1 µM, 7x7, partner max 10 µM) | 0.0159 | -0.0322 | 0.0455 | 0.0085 | -0.003 | -0.0286 | 0.0328 | 0.0236 | -0.0183 | -0.035 | 0.382 | 0.992
CCc1c2c(nc3ccc(O)cc13)-c1cc3c(c(=O)n1C2)COC(=O)[C@]3(O)CC [SN-38] + CN(C)CCCOc1ccc(-c2ccc3ncc4c(c3c2)n(C2CCOCC2)c(=O)n4C)cn1 [AZD0156] (first compound max 0.3 µM, 7x7, partner max 1 µM) | -0.0694 | 0.0408 | -0.0477 | 0.0019 | 0.0185 | 0.0872 | 0.16 | -0.0379 | -0.0108 | -0.0753 | 0.459 | 0.907
C=CCn1c(=O)c2cnc(Nc3ccc(N4CCN(C)CC4)cc3)nc2n1-c1cccc(C(C)(C)O)n1 [AZD1775] + O=C(c1cc(Cc2n[nH]c(=O)c3ccccc23)ccc1F)N1CCN(C(=O)C2CC2)CC1 [Olaparib] (first compound max 1 µM, partner max 10 µM) | -0.0222 | -0.0311 | -0.0018 | 0.0175 | 0.0271 | 0.0291 | -0.0004 | -0.0526 | -0.0069 | 0.0028 | 0.401 | 0.721
Cc1cc2ncnn2cc1Nc1ncc2c(n1)n(C1CCOCC1)c(=O)n2C [AZD7648] + CCN(CCO)CCCOc1ccc2c(Nc3cc(CC(=O)Nc4cccc(F)c4)[nH]n3)ncnc2c1 [AZD2811] (first compound max 10 µM, 7x7, partner max 1 µM) | 0.0052 | 0.0617 | 0.0148 | -0.0205 | 0.0096 | 0.0565 | 0.0043 | -0.0688 | 0.012 | 0.0728 | 0.333 | 0.532
C=CCn1c(=O)c2cnc(Nc3ccc(N4CCN(C)CC4)cc3)nc2n1-c1cccc(C(C)(C)O)n1 [AZD1775] + C[C@@H]1COCCN1C2=NC(=NC(=C2)C3(CC3)[S@](=N)(=O)C)C4=C5C=CNC5=NC=C4 [AZD6738] (first compound max 1 µM, partner max 10 µM) | 0.0458 | 0.0075 | -0.0014 | -0.0002 | 0.0485 | 0.0937 | 0.0035 | 0.0354 | -0.0075 | 0.0547 | 0.625 | 0.906
COc1cccc(OCCCN)c1-c1cc(Nc2cnc(C#N)cn2)n[nH]1 [Prexasertib] + C[C@@H]1COCCN1C2=NC(=NC(=C2)C3(CC3)[S@](=N)(=O)C)C4=C5C=CNC5=NC=C4 [AZD6738] (first compound max 1 µM, 7x7, partner max 10 µM) | -0.0158 | -0.0643 | 0.076 | -0.0294 | 0.0058 | 0.0344 | 0.0058 | 0.007 | 0.0637 | -0.0198 | 0.475 | 0.989
CCc1c2c(nc3ccc(O)cc13)-c1cc3c(c(=O)n1C2)COC(=O)[C@]3(O)CC [SN-38] + O=C(c1cc(Cc2n[nH]c(=O)c3ccccc23)ccc1F)N1CCN(C(=O)C2CC2)CC1 [Olaparib] (first compound max 0.3 µM, 7x7, partner max 10 µM) | 0.0391 | – | 0.0899 | 0.0512 | -0.0103 | 0.117 | – | 0.0064 | 0.0152 | – | 0.76 | –
